Data reported in US11214803B2, “Modulators of YAP1 expression” (Ionis Pharmaceuticals, Inc., priority 2019, dated 2022).
Strand notation (5' to 3'): a small letter for the sugar, then the base; units joined by * are phosphorothioate-linked, units joined directly phosphodiester-linked; [ ] holds rarer units or linkages, { } end groups; capitals alone tell only the bases. k = constrained ethyl (cEt); [5mC] = 5-methylcytosine; d = 2'-deoxy (DNA)

Columns and labels:
Yap1 mRNA [1] = experiment: Antisense inhibition of human Yap1 in A-431 cells by cEt gapmers, single dose (Example 3, RTS36584); type: cell-based
In short: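 Single-dose free-uptake screen of 3-10-3 cEt gapmers in A-431 cells at 2,000 nM over about 48 h. Values are % untreated control Yap1 mRNA.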

Yap1 mRNA [2] = experiment: Dose-dependent inhibition of human Yap1 in A-431 cells (Example 8, 10,000 cells per well, RTS4814); type: cell-based; details: for % UTC (Yap1 mRNA) / IC50: A-431 cells; for Yap1 mRNA, % UTC: A-431 cells, 10,000 cells per well
In short: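 A-431 cells (10,000/well) dosed with modified oligonucleotides by free uptake; Yap1 mRNA measured ~48 h later with primer-probe set RTS4814, normalized to total RNA (RIBOGREEN). Values are % of untreated control; IC50 from linear regression on log/linear plot.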

[3] = Table 35, Yap1 mRNA as percent of untreated control, 3-10-3 cEt gapmers targeting SEQ ID NO: 1 and 2, single dose
[4] = Table 29, Yap1 mRNA as percent of untreated control, 3-10-3 cEt gapmers targeting SEQ ID NO.: 1, and 2
[5] = 31.3 nM, free uptake, approximately 48 hours, RTS4814
[6] = 125.0 nM, free uptake, approximately 48 hours, RTS4814
[7] = 500.0 nM, free uptake, approximately 48 hours, RTS4814
[8] = 2000.00 nM, free uptake, approximately 48 hours, RTS4814
[9] = free uptake, approximately 48 hours, RTS4814, linear regression on log/linear plot
[10] = Table 27, Yap1 mRNA by 3-10-3 cEt gapmers targeting SEQ ID NO.: 1, and 2, percent of untreated control
[11] = Table 28, Yap1 mRNA as percent of untreated control, 3-10-3 cEt gapmers targeting SEQ ID NO.: 1, and 2
[12] = Table 26, Yap1 mRNA by 3-10-3 cEt gapmers targeting SEQ ID NO.: 1, and 2, percent of untreated control
[13] = Table 34, Yap1 mRNA as percent of untreated control, 3-10-3 cEt gapmers targeting SEQ ID NO: 1 and 2, single dose

Substance	YAP1 (% UTC) (Yap1 mRNA [1]; [3])	% UTC (Yap1 mRNA) (Yap1 mRNA [2]; 31.3 nM)	% UTC (Yap1 mRNA) (Yap1 mRNA [2]; 125.0 nM)	% UTC (Yap1 mRNA) (Yap1 mRNA [2]; 500.0 nM)	% UTC (Yap1 mRNA) (Yap1 mRNA [2]; 2000.00 nM)	IC50 (Yap1 mRNA [2]; Yap1 mRNA)	YAP1 (% UTC) (Yap1 mRNA [1]; [4])	Yap1 mRNA, % UTC (Yap1 mRNA [2]; [5])	Yap1 mRNA, % UTC (Yap1 mRNA [2]; [6])	Yap1 mRNA, % UTC (Yap1 mRNA [2]; [7])	Yap1 mRNA, % UTC (Yap1 mRNA [2]; [8])	IC50 (Yap1 mRNA [2]; [9])	YAP1 (% UTC) (Yap1 mRNA [1]; [10])	YAP1 (% UTC) (Yap1 mRNA [1]; [11])	YAP1 (% UTC) (Yap1 mRNA [1]; [12])	YAP1 (% UTC) (Yap1 mRNA [1]; [13])
1074613 (DNA k[5mC]*kA*kT*dA*dG*d[5mC]*dT*dT*dA*dT*dA*dT*dT*kG*kA*kA; antisense) [compound 1074613]	7 % UTC	63 % UTC	23 % UTC	9 % UTC	6 % UTC	40 nM	–	–	–	–	–	–	–	–	–	–
1075055 (antisense k[5mC]*kT*kA*dT*dT*dA*dA*dG*dT*dG*dA*dG*d[5mC]*kT*kT*kT) [compound 1075055]	–	–	–	–	–	–	4 % UTC	60 % UTC	20 % UTC	6 % UTC	4 % UTC	30 nM	–	–	–	–
1076397 (antisense kA*kA*k[5mC]*d[5mC]*dT*dA*dT*dA*dT*dT*dT*dG*dA*kG*k[5mC]*k[5mC]) [compound 1076397]	–	–	–	–	–	–	–	43 % UTC	14 % UTC	5 % UTC	4 % UTC	< 20 nM	4 % UTC	–	–	–
1076174 (kG*kA*kT*dA*dT*dA*dT*dG*dG*dT*dA*dG*d[5mC]*kA*kT*kA; antisense) [compound 1076174]	–	–	–	–	–	–	–	58 % UTC	21 % UTC	7 % UTC	4 % UTC	< 20 nM	–	3 % UTC	–	–
1076494 (k[5mC]*kT*kA*dA*dT*dT*dG*dA*dA*dG*d[5mC]*dT*dG*kG*k[5mC]*kA; antisense) [compound 1076494]	–	–	–	–	–	–	–	34 % UTC	7 % UTC	3 % UTC	2 % UTC	< 20 nM	–	3 % UTC	–	–
1074638 (antisense kA*kG*kA*dT*dT*dT*dT*dG*dT*dA*dA*dT*dT*kG*kG*kG) [compound 1074638]	–	–	–	–	–	–	–	14 % UTC	4 % UTC	3 % UTC	3 % UTC	< 20 nM	–	2 % UTC	–	–
1074549 (DNA kT*kA*kT*d[5mC]*dT*dA*d[5mC]*d[5mC]*dG*dT*dA*dT*dG*k[5mC]*k[5mC]*k[5mC]; antisense) [compound 1074549]	6 % UTC	67 % UTC	31 % UTC	12 % UTC	7 % UTC	100 nM	–	–	–	–	–	–	–	–	–	–
1074766 (kA*kT*k[5mC]*d[5mC]*d[5mC]*dA*dA*dT*dG*d[5mC]*dT*dA*d[5mC]*k[5mC]*k[5mC]*kA; antisense) [compound 1074766]	–	–	–	–	–	–	–	72 % UTC	32 % UTC	14 % UTC	7 % UTC	100 nM	–	8 % UTC	–	–
1074606 (DNA kG*kG*kT*dA*dT*dA*dA*dT*d[5mC]*dA*dT*dG*dA*kT*kT*kA) [compound 1074606]	–	–	–	–	–	–	–	31 % UTC	10 % UTC	6 % UTC	4 % UTC	< 20 nM	–	4 % UTC	–	–
1074414 (kA*kA*k[5mC]*dT*dG*dT*dG*dA*dA*dA*dG*dA*dG*kG*kT*k[5mC]; antisense) [compound 1074414]	–	–	–	–	–	–	–	64 % UTC	34 % UTC	14 % UTC	7 % UTC	100 nM	–	6 % UTC	–	–
1074318 (antisense kG*kG*kA*dG*dA*dA*dT*dT*dT*dG*d[5mC]*dT*dG*kT*kG*k[5mC]) [compound 1074318]	–	–	–	–	–	–	–	48 % UTC	12 % UTC	6 % UTC	4 % UTC	< 20 nM	–	4 % UTC	–	–
1074453 (kG*kT*kG*dA*d[5mC]*dT*dA*dA*dT*dG*dA*dT*dA*kG*k[5mC]*kA; antisense) [compound 1074453]	4 % UTC	51 % UTC	18 % UTC	9 % UTC	5 % UTC	< 20 nM	–	–	–	–	–	–	–	–	–	–
1076399 (antisense kG*kA*kT*dA*dA*d[5mC]*dT*dT*dA*dG*dA*dG*dA*kT*kG*kT) [compound 1076399]	–	–	–	–	–	–	4 % UTC	60 % UTC	29 % UTC	11 % UTC	6 % UTC	40 nM	–	–	–	–
1074444 (kA*k[5mC]*kA*dT*dT*dT*dT*dT*dG*dG*d[5mC]*dT*dT*kG*kT*k[5mC]; antisense) [compound 1074444]	–	–	–	–	–	–	–	49 % UTC	21 % UTC	7 % UTC	4 % UTC	< 20 nM	–	–	3 % UTC	–
1076524 (kA*kA*kT*dT*dT*dA*dT*dA*dT*d[5mC]*dA*dG*dG*kT*k[5mC]*kA; antisense) [compound 1076524]	–	–	–	–	–	–	–	71 % UTC	30 % UTC	12 % UTC	7 % UTC	100 nM	–	–	6 % UTC	–
1074484 (kT*k[5mC]*kA*d[5mC]*dT*dA*dA*dT*dA*dT*dG*dG*dT*k[5mC]*kA*kT; antisense) [compound 1074484]	–	–	–	–	–	–	–	43 % UTC	12 % UTC	5 % UTC	3 % UTC	< 20 nM	–	–	–	3 % UTC
1074221 (antisense kG*kA*kA*dT*dG*dA*dG*d[5mC]*dT*d[5mC]*dG*dA*dA*k[5mC]*kA*kT) [compound 1074221]	–	–	–	–	–	–	–	75 % UTC	38 % UTC	14 % UTC	7 % UTC	100 nM	6 % UTC	–	–	–
1075246 (kG*kA*kT*dA*dA*d[5mC]*dT*dA*dG*dT*dA*dA*d[5mC]*k[5mC]*kG*kT; antisense) [compound 1075246]	–	–	–	–	–	–	–	70 % UTC	34 % UTC	12 % UTC	6 % UTC	100 nM	–	6 % UTC	–	–
1075052 (antisense kA*kT*kA*dT*dA*dT*dA*d[5mC]*dT*dT*dG*dA*dT*k[5mC]*k[5mC]*kA) [compound 1075052]	–	–	–	–	–	–	–	40 % UTC	10 % UTC	4 % UTC	4 % UTC	< 20 nM	–	–	3 % UTC	–
1075757 (k[5mC]*kT*kT*dA*dA*dT*dA*d[5mC]*dA*dT*dT*dA*dT*kT*k[5mC]*k[5mC]; antisense) [compound 1075757]	–	–	–	–	–	–	–	43 % UTC	14 % UTC	5 % UTC	2 % UTC	< 20 nM	2 % UTC	–	–	–
1076077 (kG*kG*kA*dT*dT*dA*dA*dA*dG*dT*dT*dT*dT*k[5mC]*kA*k[5mC]; antisense) [compound 1076077]	–	–	–	–	–	–	–	53 % UTC	19 % UTC	9 % UTC	5 % UTC	< 20 nM	5 % UTC	–	–	–
1075893 (antisense k[5mC]*kG*kT*dG*dA*dA*dA*dA*dA*dG*dA*dT*dG*kT*kG*kG) [compound 1075893]	7 % UTC	80 % UTC	29 % UTC	11 % UTC	8 % UTC	100 nM	–	–	–	–	–	–	–	–	–	–
1076525 (kG*kA*kA*dT*dT*dT*dA*dT*dA*dT*d[5mC]*dA*dG*kG*kT*k[5mC]; antisense) [compound 1076525]	–	–	–	–	–	–	–	43 % UTC	14 % UTC	5 % UTC	2 % UTC	< 20 nM	3 % UTC	–	–	–
1075797 (kG*kA*kT*dA*dA*dT*d[5mC]*dA*dT*dG*dA*dT*dA*k[5mC]*kT*k[5mC]; antisense) [compound 1075797]	3 % UTC	43 % UTC	11 % UTC	4 % UTC	3 % UTC	< 20 nM	–	–	–	–	–	–	–	–	–	–
1076340 (antisense kT*kA*kA*dT*dA*dT*d[5mC]*d[5mC]*dT*d[5mC]*dA*dT*d[5mC]*kA*kG*k[5mC]) [compound 1076340]	–	79 % UTC	42 % UTC	17 % UTC	11 % UTC	100 nM	–	–	–	–	–	–	–	–	–	8 % UTC
